Measured values as given in patent US20060117411A1, “Enhancing plant pathogen resistance via increasing BiP levels” (priority 1998, published 2006).

Experiments:
BiP mRNA [1] = assay: Treatment of Arabidopsis WT and saiI mutant, Northern blot of BiP; assay type: in vivo, Arabidopsis thaliana; settings: Arabidopsis saiI mutant vs wild-type, SA 5 mM
Method: WT and saiI mutants of the same ecotype were treated with cell wall-degrading enzymes and incubated for 6 hours. As a control (con), leaves were mock-infected with H2O. Total RNA was extracted and Northern blot analysis was performed for BiP and a hevein-like protein (Hel) which is known to be induced by CDEs of Erwinia carotovora (Vidal et al, in preparation).
WT and saiI mutants of the same ecotype were sprayed with SA (5 mM) and incubated in the light. Total RNA was extracted and probed with the PR1 and BiP gene from Arabidopsis. The induction of PR1 in WT Arabidopsis was detected 3 hours after SA-treatment and continued to increase until 8 hours (FIG. 10). […] As in tobacco plants, BiP mRNA levels increase prior to PR1 transcripts in SA treated Arabidopsis plants (FIG. 10) and diminish after prolonged incubations (data not shown).
Plants of Nicotiana tabacum cultivar Petit Havana (Maliga et al., 1973) were axenically grown in MS medium (Murashige and Skoog, 1962), 2% Sucrose in a temperature controlled room at 25° C. with a 16 h day/[…] regime and a light irradiance of 200 μE.m^−2.s^−1. Arabidopsis thaliana Nössen WT and saiI plants (Shah et al., 1997) were grown under the same conditions.
Protoplasts RNAs were extracted as described by Jones et al., (1985). […]

BiP mRNA [2] = assay: SA spraying of tobacco plants, Northern blot of BiP mRNA; assay type: in vivo, Nicotiana tabacum
Method: It has been shown that SA is involved in the induction of PR genes (reviewed by Malamy and Klessig, 1992) and that this signal molecule also induces the expression of ER chaperones (Denecke et al, 1995). We wanted to investigate whether ER chaperone induction is a consequence of the high synthesis rates of PR genes and used BiP as a model system. Tobacco plants were sprayed with SA (5 mM) and the exact timing of the SA-mediated induction of PR-gene PRI was compared to that of BiP. PR1 was chosen as a representative marker for SA-mediated induction of PR genes as its response to SA is faster and more pronounced than that of acidic chitinase, basic chitinase and basic β-1.3 glucanase (Vidal et al, 1997). […] In contrast SA-induced transcription of PR1 starts only after 6-8 hours and continues to accumulate upto 16 hours after treatment. At this time-point, BiP mRNA levels start to decrease again. We have shown previously that PR1 continuous to accumulate until 48 hours after SA treatment using the same experimental system (Vidal et al, 1997). […] BiP protein levels were also shown to increase (FIG. 7B), with a significant increase noticeable after 4-6 hours of induction.
To investigate further similarities and differences in the SA-mediated induction of BiP and PR genes, we tested if the presence of light is required for the induction. The rationale for this experiment was derived from the observation that SA inhibits catalase, resulting in an increase of active oxygen species in the plant, which would then induce PR genes such as PR1 (Chen et al, 1993). Despite the fact that the inhibition of catalase activity alone is not the key route by which PR1 is induced during SA-treatment (Chamnongpol et al, 1996), a cooperative interaction of SA and H2O2 might lead to the strong induction of PR1 (Leon et al, 1995, Chen et al, 1995). […] Tobacco plants were thus sprayed with SA (5 mM) and incubated in the presence and absence of light for 6 and 16 hours. […] The data also confirm that BiP mRNA levels increase transiently and a significant decrease in mRNA levels is detectable after 16 hours of treatment (see also FIG. 7).
We have shown that the SA-induced expression of PR1 is inhibited in a concentration dependent fashion by the presence of Erwinia carotovora culture filtrate containing cell wall-degrading enzymes (Vidal et al, 1997). […] Total RNA was extracted and the expression of chaperones was determined in relation to PR1.
In example 6 we have shown that the UPR-induced BiP gene expression is additive to the cell wall-degrading enzyme (CDE) response. […] After floating of the leaves for 2.5 h on this medium, RNA was extracted and BiP gene expression was analysed by Northern blotting. […]

BiP mRNA [3] = assay: Tunicamycin treatment of tobacco protoplasts, Northern blot of BiP; assay type: cell-based, Nicotiana tabacum; settings: tunicamycin 20 μg/mL, 2.5 hrs
Method: To compare the CDE- and UPR-mediated induction of BiP, we wanted to test if both stimuli are additive. […] This is not surprising as protoplasts are prepared with CDEs. These protoplasts were then treated with tunicanycin, to superimpose the UPR onto the CDE response. […] The additional ER stress could trap BiP in malfolded protein complexes, thus making it unavailable to promote PR protein synthesis on the rough ER.
Protoplasts RNAs were extracted as described by Jones et al., (1985). Leaves were ground in frozen liquid nitrogen and transferred to NTES buffer (0.1 M NaCl, 10 mM Tris pH 7.5, 1 mM EDTA, 1% SDS). Protoplasts samples were frozen in liquid nitrogen and thawed in NTES buffer. RNA was extracted after adding an equal volume of phenol/chloroform. Ethanol precipitation was carried out after incubation at −20° C. for 16 hours. The pellet was resuspended and RNA was selectively precipitated with LiCl (2M LiCl) for 2 hours on ice. The pellet was washed with 70% ethanol and resuspended in diethyl pyrocarbonate-treated water. Gel blots of total RNA denatured in formamide and formaldehyde were prepared. RNA was blotted onto Hybond-N membrane (Amersham Corp), as described by the manufacturer. […]

Compound | BiP mRNA levels in saiI mutants during SA-treatment (BiP mRNA [1]) | accumulation of BiP mRNA transcripts during SA-treatment in the absence of light (BiP mRNA [2]; SA 5 mM, 6 and 16 hours, dark vs light) | time at which BiP mRNA levels reach a plateau (BiP mRNA [2]; sprayed with SA 5 mM) [h] | time of treatment after which BiP mRNA levels are induced (BiP mRNA [2]; sprayed with SA 5 mM) [h] | BiP transcription in SA-treated leaves floated on MS medium with tunicamycin (BiP mRNA [2]; 5 mM SA 12 h, then tunicamycin 20 μg/mL 2.5 h) | BiP induction on top of the CDE response in protoplasts (BiP mRNA [3])
O=C(O)c1ccccc1O [SA, Salicylic Acid] | exactly the same induction pattern as in the wild-type plant | hardly any reduction | 4 | 2 | – | –
tunicamycin | – | – | – | – | further induction | further induction
